Source: ChEMBL document CHEMBL5523736, “The First Discovery of Marine Polyoxygenated Cembranolides as Potential Agents for the Treatment of Ulcerative Colitis” (J Med Chem, 2024)
The source made the active and inactive calls. The rule behind the calls is not given here.

What was measured:
[1] = Cytotoxicity against mouse RAW264.7 cells assessed as cell viability at 20 uM incubated for 24 hrs by CCK8 assay relative to control; type: toxicity, cell-based; settings: read-out: Activity
[2] = tested on: RAW264.7; test: Antiinflammatory activity in mouse RAW264.7 cells assessed as inhibition of LPS-induced NO production at 20 uM incubated for 24 hrs relative to control; type: functional
[3] = tested on: RAW264.7; test: Antiinflammatory activity in mouse RAW264.7 cells assessed as inhibition of LPS-induced NO production incubated for 24 hrs; type: functional, cell-based; settings: RAW264.7, 24 h
[4] = tested on: RAW264.7; test: Antiinflammatory activity in LPS-induced mouse RAW264.7 cells assessed as reduction in IL-6 mRNA expression level at 20 uM by qRT-PCR analysis; type: functional, cell-based
[5] = tested on: RAW264.7; test: Antiinflammatory activity in LPS-induced mouse RAW264.7 cells assessed as reduction in TNF-alpha mRNA expression level at 20 uM by qRT-PCR analysis; type: functional, cell-based
[6] = tested on: RAW264.7; test: Antiinflammatory activity in LPS-induced mouse RAW264.7 cells assessed as reduction in IL-1beta mRNA expression level at 20 uM by qRT-PCR analysis; type: functional, cell-based
[7] = tested on: RAW264.7; test: Antiinflammatory activity in LPS-induced mouse RAW264.7 cells assessed as reduction in iNOS mRNA expression level at 20 uM by qRT-PCR analysis; type: functional, cell-based

IC50 [3] [µM]	SMILES	viability at 24 h, 20 µM [1] [%]	inhibition at 20 µM [2] [%]	Activity [4]	Activity [5]	Activity [6]	Activity [7]
–	C=C(C(=O)OC)[C@@H]1CC[C@@](C)(O)[C@@H]2CC[C@@](C)(O2)[C@@H](OC(C)=O)CC[C@]2(C)O[C@H]2C1 [DENDRONPHOLIDE G]	83	-49	–	–	–	–
–	C=C1C(=O)O[C@]2(C)CC[C@@H]1C[C@H](OC(C)=O)[C@@]1(C)CC[C@H](O1)[C@](C)(O)CC[C@H]2O	109	25.8	–	–	–	–
–	C=C(C(=O)OC)[C@@H]1CC[C@@]2(C)O[C@@H]2CC[C@](C)(O)/C=C/C[C@]2(C)O[C@H]2C1	108	31.1	–	–	–	–
–	C=C1C(=O)O[C@]2(C)CC[C@@H]1C[C@H](O)[C@@]1(C)CC[C@H](O1)C(=C)CCC2=O	89.5	34	–	–	–	–
9.48	C=C1C(=O)O[C@]2(C)CC[C@@H]1C[C@H](O)[C@@]1(C)CC[C@H](OC(C)=O)[C@@](C)(CCC2=O)O1 [QUERCIFORMOLIDE A]	94.1	85.1	–	–	–	–
–	C=C1C(=O)O[C@]2(C)CC[C@@H]1C[C@H](OC(C)=O)[C@@]1(C)CC[C@H](O1)C(=C)CC[C@H]2OC(C)=O [GRANOSOLIDE B]	102	56	–	–	–	–
–	C=C(C(=O)OC)[C@@H]1CC[C@@](C)(O)[C@@H](OC(C)=O)CC/C(C)=C/C/C=C(\C)[C@H](O)C1	89.2	55.7	–	–	–	–
12.7	C=C1C(=O)O[C@]2(C)CC[C@@H]1C/C=C(\C)CC/C=C(\C)CC[C@@H]2O	93.7	93.1	–	–	–	–
1.98	C=C1C(=O)O[C@]2(C)CC[C@@H]1C[C@@H]1O[C@@]1(C)CC[C@H](O)[C@](C)(O)CCC2=O	89	90	Active	Active	Active	Active
13.1	C=C1C(=O)O[C@]2(C)CC[C@@H]1C[C@@H]1O[C@@]1(C)CC/C=C(\C)CC[C@H]2O	92.8	86.7	–	–	–	–
1.59	C=C1C(=O)O[C@]2(C)CC[C@@H]1C[C@@H]1O[C@@]1(C)CC[C@@H]1O[C@]1(C)CC[C@H]2OC(C)=O	92.7	141	Active	Active	Active	Active
10.1	C=C1C(=O)O[C@]2(C)CC[C@@H]1C[C@@H]1O[C@@]1(C)C/C=C/[C@@](C)(O)CC[C@H]2OC(C)=O	87.9	99.5	–	–	–	–
–	C=C(C(=O)OC)[C@@H]1CC[C@]2(C)O[C@H]2CC[C@](C)(OO)/C=C/C[C@]2(C)O[C@@H]2C1	87.4	35.4	–	–	–	–
–	C=C1C(=O)O[C@]2(C)CC[C@@H]1C[C@H](O)[C@@]1(C)CC[C@H](O1)[C@](C)(O)CC[C@H]2OC(C)=O [QUERCIFORMOLIDE B]	103	16.3	–	–	–	–
–	C=C(C(=O)OC)[C@@H]1CC[C@]2(C)O[C@@]2(O)CC/C(C)=C/CC[C@]2(C)O[C@@H]2C1	94	0	–	–	–	–
